Calls of active or inactive are those of the source. No cut-off for these calls is given here. Starred links: 1 amine or outer side, 2 acyl side, 3 side chain; linkers in the order of their positions; H or OH if unused. Positions of bridges follow the written chain, without caps; N, C: chain ends. Non-standard residues stand in square brackets, D forms with d. Residues, ends and D or L forms follow the SMILES beside them. ξ: configuration not given here. ξαMeNle(6-ylidene) = CC(CCCC=[*:3])(N[*:1])C(=O)[*:2]; X1 = CC(C)C[C@@](CCCC=[*:3])(N[*:1])C(=O)[*:2]; X2 = NCCCC[C@@](CCCC=[*:3])(N[*:1])C(=O)[*:2]; Dip = N[C@H](C(=O)O)C(c1ccccc1)c1ccccc1; S5 = C=CCCC[C@](C)(N)C(=O)O
Legend:
4T1 [1] = experiment: Antiproliferative activity against triple-negative mouse 4T1 cells assessed as inhibition of cell growth measured after 24 hrs by Cell Counting Kit-8 assay; type: functional, cell-based; conditions: 4T1, 24 h
B16-F10 [2] = experiment: Antiproliferative activity against mouse B16-F10 cells assessed as inhibition of cell growth measured after 24 hrs by Cell Counting Kit-8 assay; type: functional, cell-based; conditions: B16-F10, 24 h
4T1 [3] = experiment: Cytotoxicity against mouse 4T1 cells assessed as loss of membrane integrity by measuring increase in LDH release incubated for 24 hrs by LDH release assay; type: functional, cell-based
[4] = Hemolytic activity in mouse RBC assessed as hemoglobin release at 20 to 80 uM incubated for 1 hr by absorbance based method; type: tissue-based; conditions: erythrocyte, dose 20-80 µM
4T1 [5] = experiment: Cytotoxicity against mouse 4T1 cells assessed as increase in extracellular ATP level at 50 uM measured up to 60 mins by luminometric method; type: functional, cell-based; conditions: time min <=60
4T1 [6] = experiment: Induction of morphological changes in mouse 4T1 cells assessed as change in adhesion measured up to 10 mins by bright field 3D live-cell imaging analysis; type: functional, cell-based; conditions: time min <=10
4T1 [7] = experiment: Induction of morphological changes in mouse 4T1 cells assessed as appearance of broken cell particles measured after 5 mins by bright field 3D live-cell imaging analysis; type: functional, cell-based
4T1 [8] = experiment: Cytotoxicity against mouse 4T1 cells assessed as disruption of cells by measuring increase in red fluorescence at 10 uM measured up to 3 hrs by calcein-AM and PI dual staining based live/dead cell viability assay; type: functional; conditions: time hrs <=3
[9] = Stability of the compound assessed as alpha chymotrypsin (unknown origin)-mediated proteolysis by measuring degradation half life at 1 mM measured up to 12 hrs by HPLC analysis; type: ADME; conditions: human; for half-life at 1000 µM: alpha-chymotrypsin
[10] = Stability of the compound assessed as alpha chymotrypsin (unknown origin)-mediated proteolysis by measuring parent compound remaining at 1 mM measured up to 12 hrs by HPLC analysis; type: ADME; conditions: human, read-out: Stability
[11] = Toxicity in 4T1 tumor bearing BALB/c mouse assessed as increase in body weight at 1 mg, IT administered once daily for 3 consecutive days starting from day 2 post inoculation; conditions: in vivo, other, 72 h, time 3 day
4T1 [12] = experiment: Antitumor activity against mouse 4T1 cells implanted in BALB/c mouse assessed as inhibition of tumor progression at 1 mg, IT administered once daily for 3 consecutive days starting from day 2 post inoculation; type: functional, cell-based; conditions: time 3.0 day
4T1 [13] = experiment: Antitumor activity against mouse 4T1 cells implanted in BALB/c mouse assessed as necrosis at 1 mg, IT administered once daily for 3 consecutive days starting from day 2 post inoculation and measured on day 7 by hematoxylin-eosin staining based assay; type: functional, cell-based; conditions: time 7.0 day
4T1 [14] = experiment: Antitumor activity against mouse 4T1 cells implanted in BALB/c mouse assessed as necrosis at 1 mg, IT administered once daily for 3 consecutive days starting from day 2 post inoculation and measured on day 18 by hematoxylin-eosin staining based assay; type: functional, cell-based; conditions: time 18.0 day
B16-F10 [15] = experiment: Antitumor activity against mouse B16-F10 cells implanted in C57 mouse assessed as reduction in tumor growth at 1 mg, IT administered once daily for 3 consecutive days starting from day 5 post inoculation; type: functional, cell-based; conditions: time 3.0 day
B16-F10 [16] = experiment: Antitumor activity against mouse B16-F10 cells implanted in C57 mouse assessed as induction of cell necrosis by measuring reduction in live cells at 1 mg, IT administered once daily for 3 consecutive days starting from day 5 post inoculation and measured after 10 to 14 days by hematoxylin-eosin staining based assay; type: functional; conditions: time 10-14 day
[17] = Toxicity in B16-F10 tumor bearing C57 mouse assessed as change in body weight at 1 mg, IT administered once daily for 3 consecutive days starting from day 5 post inoculation; conditions: in vivo, other, 72 h, time 3 day
4T1 [18] = experiment: Antitumor immunity against mouse 4T1 cells implanted in […] mouse assessed as surface translocation of calreticulin at IC75 measured after 6 hrs by DiR/Hoechst 33342 staining based confocal microscopic analysis; type: functional, cell-based
B16-F10 [19] = experiment: Antitumor immunity against mouse B16-F10 cells implanted in C57 mouse assessed as surface translocation of calreticulin at IC75 measured after 6 hrs by DiR/Hoechst 33342 staining based confocal microscopic analysis; type: functional, cell-based
4T1 [20] = experiment: Antitumor immunity against mouse 4T1 cells implanted in […] mouse assessed as release of HMGB-1 at IC75 measured after 6 hrs by Hoechst 33342 staining based confocal microscopic analysis; type: functional, cell-based
B16-F10 [21] = experiment: Antitumor immunity against mouse B16-F10 cells implanted in C57 mouse assessed as release of HMGB-1 at IC75 measured after 6 hrs by Hoechst 33342 staining based confocal microscopic analysis; type: functional, cell-based
4T1 [22] = experiment: (§1) Antitumor activity against mouse 4T1 cells implanted in […] mouse assessed as increase in infiltration of CD4 positive T lymphocytes in tumors at 1 mg, IT administered once daily for 3 consecutive days starting from day 2 post inoculation and measured after 7 days by histochemical staining based analysis; type: functional, cell-based; conditions: time 7.0 day
4T1 [23] = experiment: as §1, with “CD8” for “CD4”; type: functional, cell-based; conditions: time 7.0 day
B16-F10 [24] = experiment: as §1, with “mouse B16-F10” for “mouse 4T1”, “T cells into” for “T lymphocytes in”, “day 5” for “day 2”, “after 10” for “after 7”; type: functional, cell-based; conditions: time 10.0 day
B16-F10 [25] = experiment: as §1, with “mouse B16-F10” for “mouse 4T1”, “of CD8” for “of CD4”, “T cells into” for “T lymphocytes in”, “day 5” for “day 2”, “after 10” for “after 7”; type: functional, cell-based; conditions: time 10.0 day
[26] = Hemolytic activity in mouse RBC assessed as hemoglobin release at 80 uM incubated for 1 hr by absorbance based method relative to control; type: ADME, tissue-based, Erythrocyte; conditions: mouse red blood cells, read-out: Activity
4T1 [27] = experiment: Cytotoxicity against mouse 4T1 cells assessed as permeabilization in to cell membrane at 10 uM measured up to 3 hrs by calcein-AM and PI dual staining based live/dead cell viability assay; type: functional; conditions: time hrs <=3, TDE = time-dependent effect
B16-F10 [28] = experiment: Antitumor immunity against mouse B16-F10 cells implanted in anti-CD8 positive antibody stimulated C57 mouse assessed as inhibition of tumor progression at 1 mg, IT administered once daily for 3 consecutive days starting from day 7 and measured after 20 days; type: functional, cell-based; conditions: time 20.0 day
B16-F10 [29] = experiment: Antitumor immunity against mouse B16-F10 cells implanted in anti-CD8 positive antibody stimulated C57 mouse assessed as inhibition of tumor progression at 1 mg, IT administered once daily for 3 consecutive days starting from day 7 and measured after 40 days; type: functional, cell-based; conditions: time 40.0 day

SMILES | IC50 (4T1 [1]) [µM] | IC50 (B16-F10 [2]) [µM] | Activity (4T1 [3]) | Activity (4T1 [8]) | Activity [11] | Activity (4T1 [12]) | Activity (4T1 [13]) | Activity (4T1 [14]) | Activity (B16-F10 [15]) | Activity (B16-F10 [16]) | Activity [17] | Activity (4T1 [22]) | Activity (4T1 [23]) | Activity (B16-F10 [24]) | Activity (B16-F10 [25]) | other results
CC(C)C[C@H](NC(=O)CN)C(=O)N[C@@H](CC(C)C)C(=O)N[C@@H](CCCCN)C(=O)N[C@@H](CCCNC(=N)N)C(=O)N[C@@]1(C)CCC/C=C\CCC[C@@](C)(C(N)=O)NC(=O)[C@H](CC(C)C)NC(=O)[C@H]([C@@H](C)O)NC(=O)[C@H](CCCCN)NC1=O (H-GLLKR[S5]KTL[S5]-NH2; staple (Z) 6-10) | 31.2 | 66.1 |  |  |  |  |  |  |  |  |  |  |  |  |  | 
CC[C@H](C)[C@@H]1NC(=O)[C@H](CCCNC(=N)N)NC(=O)[C@@](C)(NC(=O)[C@H](CC(C)C)NC(=O)[C@H](CC(C)C)NC(=O)CN)CCC/C=C\CCC[C@@](C)(C(=O)N[C@@H](CC(C)C)C(=O)N[C@@H](CC(C)C)C(N)=O)NC(=O)[C@H](CCCCN)NC1=O (H-GLL[S5]RIK[S5]LL-NH2; staple (Z) 4-8) | 33.5 | 59.7 |  |  |  |  |  |  |  |  |  |  |  |  |  | 
CC[C@H](C)[C@@H]1NC(=O)[C@H](CCCNC(=N)N)NC(=O)[C@H](CCCCN)NC(=O)[C@@](CC(C)C)(NC(=O)[C@H](CC(C)C)NC(=O)CN)CCC/C=C\CCC[C@@](CCCCN)(C(=O)N[C@H](C(=O)N[C@@H](CC(C)C)C(=O)N[C@@H](CC(C)C)C(N)=O)[C@@H](C)O)NC1=O (H-GL[X1]KRI[X2]TLL-NH2; staple (Z) 3-7) | 6.57 | 30.4 |  |  | Non-Toxic | inactive | Active | inactive | Active | Active | Non-Toxic | inactive | inactive | Active | Active | hemolysis at 1 h, 80 µM [26]: < 10%; Activity (4T1 [27]): Tde; Activity (B16-F10 [28]): inactive; Activity (B16-F10 [29]): inactive
CC[C@H](C)[C@H](NC(=O)[C@H](CCCNC(=N)N)NC(=O)[C@H](CCCCN)NC(=O)[C@H](CC(C)C)NC(=O)[C@H](CC(C)C)NC(=O)CN)C(=O)N[C@@H](CCCCN)C(=O)N[C@H](C(=O)N[C@@H](CC(C)C)C(=O)N[C@@H](CC(C)C)C(N)=O)[C@@H](C)O [ANOPLIN] (H-GLLKRIKTLL-NH2) | 191 | > 400 | Dose-Dependent Effect | inactive | Non-Toxic |  |  |  | inactive |  | Non-Toxic | inactive | inactive | Active | Active | half-life at 1000 µM [9]: 12 min
NCCCC[C@H](NC(=O)[C@@H](NC(=O)[C@H](Cc1c[nH]c2ccccc12)NC(=O)[C@H](CCCCN)NC(=O)[C@H](CCCCN)NC(=O)[C@H](Cc1c[nH]c2ccccc12)NC(=O)[C@H](Cc1c[nH]c2ccccc12)NC(=O)[C@H](CCCCN)NC(=O)[C@@H](N)CCCCN)C(c1ccccc1)c1ccccc1)C(N)=O [RUXOTEMITIDE] (H-KKWWKKW[Dip]K-NH2) |  |  | Dose-Dependent Effect | Active | Non-Toxic | inactive | Active | inactive | Active | Active | Non-Toxic | inactive | inactive | Active | Active | Activity (4T1 [5]): Active; half-life at 1000 µM [9]: 34 min

Further lines, with some results ahead:

IC50 (4T1 [1]) [µM] | IC50 (B16-F10 [2]) [µM] | SMILES | Activity (4T1 [3]) | Activity (4T1 [8]) | Activity [11] | Activity (4T1 [12]) | Activity (4T1 [13]) | Activity (4T1 [14]) | Activity (B16-F10 [15]) | Activity (B16-F10 [16]) | Activity [17] | Activity (4T1 [22]) | Activity (4T1 [23]) | Activity (B16-F10 [24]) | Activity (B16-F10 [25]) | other results
5.15 | 15.7 | CC[C@H](C)[C@@H]1NC(=O)[C@@](C)(NC(=O)[C@H](CCCCN)NC(=O)[C@H](CC(C)C)NC(=O)[C@H](CC(C)C)NC(=O)CN)CCC/C=C\CCC[C@@](C)(C(=O)N[C@@H](CC(C)C)C(N)=O)NC(=O)[C@H]([C@@H](C)O)NC(=O)[C@H](CCCCN)NC1=O (H-GLLK[S5]IKT[S5]L-NH2; staple (Z) 5-9) |  |  |  |  |  |  |  |  |  |  |  |  |  | 
4.02 | 16.1 | CC[C@H](C)[C@@H]1NC(=O)[C@H](CCCNC(=N)N)NC(=O)[C@H](CCCCN)NC(=O)[C@@](C)(NC(=O)[C@H](CC(C)C)NC(=O)CN)CCC/C=C\CCC[C@@](C)(C(=O)N[C@H](C(=O)N[C@@H](CC(C)C)C(=O)N[C@@H](CC(C)C)C(N)=O)[C@@H](C)O)NC1=O (H-GL[S5]KRI[S5]TLL-NH2; staple (Z) 3-7) | Dose-Dependent Effect | Active | Non-Toxic | inactive | Active | inactive | Active | Active | Non-Toxic | inactive | inactive | Active | Active | Activity [4]: Toxic; Activity (4T1 [5]): Active; Activity (4T1 [6]): Active; Activity (4T1 [7]): Active; Stability ([9]; 12 h, 1000 µM): Stable; remaining at 12 h, 1000 µM [10]: > 60%; Activity (4T1 [18]): Active; Activity (B16-F10 [19]): Active; Activity (4T1 [20]): Active; Activity (B16-F10 [21]): Active
5.15 | 15.1 | CC[C@H](C)[C@H](NC(=O)[C@]1(C)CCC/C=C\CCCC(C)(N)C(=O)N[C@@H](CC(C)C)C(=O)N[C@@H](CC(C)C)C(=O)N[C@@H](CCCCN)C(=O)N1)C(=O)N[C@@H](CCCCN)C(=O)N[C@H](C(=O)N[C@@H](CC(C)C)C(=O)N[C@@H](CC(C)C)C(N)=O)[C@@H](C)O (stereo partly drawn) (H-[ξαMeNle(6-ylidene)]LLK[S5]IKTLL-NH2; staple (Z) 1-5) |  |  |  |  |  |  |  |  |  |  |  |  |  | Activity [4]: Toxic

Source: ChEMBL document CHEMBL5029142, “Stapled Wasp Venom-Derived Oncolytic Peptides with Side Chains Induce Rapid Membrane Lysis and Prolonged Immune Responses in Melanoma” (J Med Chem, 2021)
